Data on 11 molecules can be found in US20060241297A1, “Pyridinylamino-pyrimidine derivatives as protein kinase inhibitors” (Cyclacel Limited, priority 2003, published 2006).

Read-outs that look alike come from different tables or passages of the source. Some results are limits rather than exact numbers.

For one assay, the target named is CDK7/cyclin H (Homo sapiens, UniProt P50613). Nature of the assay: Kinase assay, incorporation of radioactive phosphate from ATP. The conditions noted are these: 100 μM ATP, 30° C.; read-out: Kinase inhibition Ki CDK7/cyclin H. Format: biochemical. The method, then:
(§1) The compounds from the examples above were investigated for their ability to inhibit the enzymatic activity of various protein kinases. This was achieved by measurement of incorporation of radioactive phosphate from ATP into appropriate polypeptide substrates. Recombinant protein kinases and kinase complexes were produced or obtained commercially. Assays were performed using 96-well plates and appropriate assay buffers (typically 25 mM β-glycerophosphate, 20 mM MOPS, 5 mM EGTA, 1 mM DTT, 1 mM […], pH 7.4), into which were added 2-4 μg of active enzyme with appropriate substrates. The reactions were initiated by addition of Mg/ATP mix (15 mM MgCl2+100 μM ATP with 30-50 kBq per well of [γ-^32P]-ATP) and mixtures incubated as required at 30° C. Reactions were stopped on ice, followed by filtration through p81 filterplates or GF/C filterplates (Whatman Polyfiltronics, Kent, UK). After washing 3 times with 75 mM aq orthophosphoric acid, plates were dried, scintillant added and incorporated radioactivity measured in a scintillation counter (TopCount, Packard Instruments, Pangboume, Berks, UK). Compounds for kinase assay were made up as 10 mM stocks in DMSO and diluted into 10% DMSO in assay buffer. Data was analysed using curve-fitting software (GraphPad Prism version 3.00 for Windows, GraphPad Software, San Diego Calif. USA) to determine IC50 values (concentration of test compound which inhibits kinase activity by 50%.).

A further assay concerns the target CDK2/cyclin A (Homo sapiens, UniProt P24941). Described as above. Format: biochemical. The conditions noted are these: 100 μM ATP, 30° C.; read-out: Kinase inhibition Ki CDK2/cyclin A. As for the experimental part:
as §1

The target of a further assay is GSK3β (Homo sapiens, UniProt P49841). The description is as above. Type of assay: biochemical. The conditions noted are these: 100 μM ATP, 30° C.; read-out: Kinase inhibition Ki GSK3β. The method, then: as §1
For a further assay, the target named is CDK4/cyclin D1 (Homo sapiens, UniProt P11802). The assay is described as above. Type of assay: biochemical. The conditions noted are these: 100 μM ATP, 30° C.; read-out: Kinase inhibition Ki CDK4/cyclin D1. The method, then:
as §1

The target in another assay is CDK9/cyclin T1 (Homo sapiens, UniProt P50750). Described as above. Format: biochemical. As to conditions: 100 μM ATP, 30° C.; read-out: Kinase inhibition Ki CDK9/cyclin T1. As for the experimental part:
as §1

The next assay has as its target CDK2/cyclin E (Homo sapiens, UniProt P24941). Described as above. Type of assay: biochemical. As to conditions: 100 μM ATP, 30° C.; read-out: Kinase inhibition Ki CDK2/cyclin E. As for the experimental part: as §1
In a further assay the target is CDK1/cyclin B (Homo sapiens, UniProt P06493). Described as above. The conditions noted are these: 100 μM ATP, 30° C.; read-out: Kinase inhibition Ki CDK1/cyclin B. Type of assay: biochemical. As for the experimental part: as §1
The subject of assay [1] is transformed human cell lines (A549, HT29, Saos-2). Nature of the assay: 72-h MTT cytotoxicity assay, average over cell lines. Type of assay: cell-based. The method, then: (§2) The compounds from the examples above were subjected to a standard cellular proliferation assay using human tumour cell lines obtained from the ATCC (American Type Culture Collection, 10801 University Boulevard, Manessas, Va. 20110-2209, USA). Standard 72-h MTT (thiazolyl blue; 3-[4,5-dimethylthiazol-2-yl]-2,5-diphenyltetrazolium bromide) assays were performed. In short: cells were seeded into 96-well plates according to doubling time and incubated overnight at 37° C. Test compounds were made up in DMSO and a 1/3 dilution series prepared in 100 μL cell media, added to cells (in triplicates) and incubated for 72 ho at 37° C. MTT was made up as a stock of 5 mg/mL in cell media and filter-sterilised. Media was removed from cells followed by a wash with 200 μL PBS. MTT solution was then added at 20 μL per well and incubated in the dark at 37° C. for 4 h. MTT solution was removed and cells again washed with 200 μL PBS. MTT dye was solubilised with 200 μL per well of DMSO with agitation. Absorbance was read at 540 nm and data analysed using curve-fitting software (GraphPad Prism version 3.00 for Windows, GraphPad Software, San Diego Calif. USA) to determine IC50 values (concentration of test compound which inhibits cell growth by 50%). Various modifications and variations of the described aspects of the invention will be apparent to those skilled in the art without departing from the scope and spirit of the invention. Although the invention has been described in connection with specific preferred embodiments, it should be understood that the invention as claimed should not be unduly limited to such specific embodiments. Indeed, various modifications of the described modes of carrying out the invention which are obvious to those skilled in the relevant fields are intended to be within the scope of the following claims.
For orientation: Formazan colour is commonly taken as a measure of viable cells.

For another assay, the system named is A549. Description: 72-h MTT cytotoxicity assay. Type of assay: cell-based. The conditions noted are these: Homo sapiens. The method, then:
as §2

The test system of the next assay is Saos-2. Description: 72-h MTT cytotoxicity assay. Format: cell-based. As to conditions: Homo sapiens. As for the experimental part:
as §2

The test system of a further assay is HT29. Nature of the assay: 72-h MTT cytotoxicity assay. The conditions noted are these: Homo sapiens, HT-29. Type of assay: cell-based. As for the experimental part: as §2
Setting [2] is: average of A549, HT29, Saos-2, read-out: 72-h MTT IC50 Average.
Where [3] appears, read: in vitro, read-out: IC50 value (average) against one or more transformed human cell lines, 72-h MTT cytotoxicity assay.

Chain of CDK4/cyclin D1 (P11802 whole entry): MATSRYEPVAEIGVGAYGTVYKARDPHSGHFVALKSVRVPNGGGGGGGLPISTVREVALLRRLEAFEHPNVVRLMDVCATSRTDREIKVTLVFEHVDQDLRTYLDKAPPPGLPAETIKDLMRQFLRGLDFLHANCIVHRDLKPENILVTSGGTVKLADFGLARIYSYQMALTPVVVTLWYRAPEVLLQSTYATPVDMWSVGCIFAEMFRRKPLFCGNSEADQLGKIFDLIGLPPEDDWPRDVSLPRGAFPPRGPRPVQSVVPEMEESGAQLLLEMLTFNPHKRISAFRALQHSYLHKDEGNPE
Chain of CDK4/cyclin D1 (P24385 whole entry partner): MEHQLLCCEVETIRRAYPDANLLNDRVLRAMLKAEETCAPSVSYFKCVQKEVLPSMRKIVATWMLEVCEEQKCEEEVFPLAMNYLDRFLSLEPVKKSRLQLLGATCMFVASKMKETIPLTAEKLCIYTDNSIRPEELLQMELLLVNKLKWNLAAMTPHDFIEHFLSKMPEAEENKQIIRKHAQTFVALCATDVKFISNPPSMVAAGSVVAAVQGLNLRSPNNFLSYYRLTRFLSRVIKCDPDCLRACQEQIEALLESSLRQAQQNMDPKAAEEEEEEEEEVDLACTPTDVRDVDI
Chain of GSK3β (P49841 whole entry): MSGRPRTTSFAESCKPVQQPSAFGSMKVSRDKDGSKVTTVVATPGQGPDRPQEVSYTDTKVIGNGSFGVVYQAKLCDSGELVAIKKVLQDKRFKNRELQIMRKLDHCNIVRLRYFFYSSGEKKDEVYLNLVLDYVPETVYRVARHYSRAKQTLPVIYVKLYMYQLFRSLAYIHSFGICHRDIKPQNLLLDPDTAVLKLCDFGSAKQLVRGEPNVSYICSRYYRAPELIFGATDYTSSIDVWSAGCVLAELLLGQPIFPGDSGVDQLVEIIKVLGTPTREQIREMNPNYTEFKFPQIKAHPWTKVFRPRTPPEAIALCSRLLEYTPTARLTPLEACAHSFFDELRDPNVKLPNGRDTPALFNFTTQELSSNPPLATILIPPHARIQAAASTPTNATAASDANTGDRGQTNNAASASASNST
Chain of CDK1/cyclin B (P06493 whole entry): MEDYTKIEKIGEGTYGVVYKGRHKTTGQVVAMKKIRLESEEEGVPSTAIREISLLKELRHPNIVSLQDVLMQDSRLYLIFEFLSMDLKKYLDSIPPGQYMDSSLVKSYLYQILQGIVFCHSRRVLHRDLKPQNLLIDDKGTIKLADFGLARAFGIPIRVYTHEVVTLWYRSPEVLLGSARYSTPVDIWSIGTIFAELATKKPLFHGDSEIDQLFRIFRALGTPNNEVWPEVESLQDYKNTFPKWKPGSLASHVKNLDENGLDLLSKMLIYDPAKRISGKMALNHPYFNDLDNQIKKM
Chain of CDK1/cyclin B (P14635 whole entry partner): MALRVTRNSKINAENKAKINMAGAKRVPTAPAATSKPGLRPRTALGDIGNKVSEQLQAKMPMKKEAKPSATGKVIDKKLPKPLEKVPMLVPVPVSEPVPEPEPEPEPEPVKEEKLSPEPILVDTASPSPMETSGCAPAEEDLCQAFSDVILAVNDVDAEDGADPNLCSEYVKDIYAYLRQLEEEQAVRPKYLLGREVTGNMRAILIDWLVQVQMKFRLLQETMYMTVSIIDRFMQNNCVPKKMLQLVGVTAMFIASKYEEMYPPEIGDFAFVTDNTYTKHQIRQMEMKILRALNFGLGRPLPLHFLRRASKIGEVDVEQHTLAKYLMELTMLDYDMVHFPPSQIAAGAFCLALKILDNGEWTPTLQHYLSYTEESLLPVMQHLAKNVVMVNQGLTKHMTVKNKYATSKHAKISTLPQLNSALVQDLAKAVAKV
Chain of CDK9/cyclin T1 (P50750 whole entry): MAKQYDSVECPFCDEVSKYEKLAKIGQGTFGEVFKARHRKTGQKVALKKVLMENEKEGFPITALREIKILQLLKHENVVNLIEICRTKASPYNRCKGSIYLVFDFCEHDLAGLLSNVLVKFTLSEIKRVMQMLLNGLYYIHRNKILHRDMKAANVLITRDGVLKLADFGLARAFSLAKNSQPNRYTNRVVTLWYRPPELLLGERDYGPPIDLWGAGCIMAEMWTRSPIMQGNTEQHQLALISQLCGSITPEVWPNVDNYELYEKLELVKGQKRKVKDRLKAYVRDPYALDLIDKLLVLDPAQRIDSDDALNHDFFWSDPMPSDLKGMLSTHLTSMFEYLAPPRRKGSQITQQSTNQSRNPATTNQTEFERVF
Chain of CDK9/cyclin T1 (O60563 whole entry partner): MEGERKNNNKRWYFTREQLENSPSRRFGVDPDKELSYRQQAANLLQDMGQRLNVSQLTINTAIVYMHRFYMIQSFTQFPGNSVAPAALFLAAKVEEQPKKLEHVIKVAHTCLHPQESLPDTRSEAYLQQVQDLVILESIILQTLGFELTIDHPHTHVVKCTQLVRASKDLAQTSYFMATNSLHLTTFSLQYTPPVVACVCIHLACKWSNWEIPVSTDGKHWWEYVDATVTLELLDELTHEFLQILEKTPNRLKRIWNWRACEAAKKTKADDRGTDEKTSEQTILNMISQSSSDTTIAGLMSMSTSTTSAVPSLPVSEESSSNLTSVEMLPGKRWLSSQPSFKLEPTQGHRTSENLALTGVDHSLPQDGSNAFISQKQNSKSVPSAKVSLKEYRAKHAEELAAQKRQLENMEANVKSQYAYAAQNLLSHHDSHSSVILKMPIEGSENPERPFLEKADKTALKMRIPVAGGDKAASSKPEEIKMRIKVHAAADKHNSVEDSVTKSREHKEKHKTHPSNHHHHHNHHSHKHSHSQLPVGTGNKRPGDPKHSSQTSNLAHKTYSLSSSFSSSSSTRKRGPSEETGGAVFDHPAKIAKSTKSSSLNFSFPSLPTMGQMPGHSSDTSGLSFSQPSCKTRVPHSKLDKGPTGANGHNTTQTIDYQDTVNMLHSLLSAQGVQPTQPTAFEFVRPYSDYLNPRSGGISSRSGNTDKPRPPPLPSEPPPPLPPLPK
Chain of CDK7/cyclin H (P50613 whole entry): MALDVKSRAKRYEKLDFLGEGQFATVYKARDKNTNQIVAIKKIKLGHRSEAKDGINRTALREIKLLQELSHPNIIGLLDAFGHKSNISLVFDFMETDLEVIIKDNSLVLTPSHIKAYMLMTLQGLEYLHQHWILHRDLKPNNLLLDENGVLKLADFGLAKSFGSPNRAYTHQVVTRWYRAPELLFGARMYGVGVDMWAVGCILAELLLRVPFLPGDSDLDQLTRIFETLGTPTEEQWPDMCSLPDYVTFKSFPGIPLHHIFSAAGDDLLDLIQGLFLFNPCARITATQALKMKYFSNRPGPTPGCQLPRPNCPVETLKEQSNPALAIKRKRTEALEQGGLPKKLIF
Chain of CDK7/cyclin H (P51946 whole entry partner): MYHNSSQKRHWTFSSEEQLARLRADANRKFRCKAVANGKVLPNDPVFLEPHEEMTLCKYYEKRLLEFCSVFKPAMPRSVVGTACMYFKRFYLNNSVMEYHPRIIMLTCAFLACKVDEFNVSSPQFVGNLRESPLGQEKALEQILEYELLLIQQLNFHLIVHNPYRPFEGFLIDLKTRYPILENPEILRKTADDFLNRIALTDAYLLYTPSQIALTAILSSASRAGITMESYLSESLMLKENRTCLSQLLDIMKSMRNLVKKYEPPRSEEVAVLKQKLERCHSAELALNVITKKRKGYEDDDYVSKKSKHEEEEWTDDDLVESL

As to `CNc1nc(C)c(-c2ccnc(Nc3ccc(N4CCN(C)CC4)nc3)n2)s1` [Compound 15, [4-(4-Methyl-2-methylamino-thiazol-5-yl)-pyrimidin-2-yl]-[6-(4-methyl-piperazin-1-yl)-pyridin-3-yl]-amine], the Ki at CDK7/cyclin H is 280 nM; on CDK2/cyclin A it was 1500 nM; on GSK3β, 2900 nM; at CDK4/cyclin D1 it was 80 nM; at CDK9/cyclin T1, 80 nM.

As usually defined, the IC50 is the concentration that inhibits the measured activity by half. With `COc1ccc(Nc2nccc(-c3sc(N)nc3C)n2)cn1` [Compound 5, [4-(2-Amino-4-methyl-thiazol-5-yl)-pyrimidin-2-yl]-(6-methoxy-pyridin-3-yl)-amine], the Ki at CDK7/cyclin H came out at 710 nM; on CDK2/cyclin A, 950 nM; on GSK3β it was 350 nM; at CDK4/cyclin D1 it was 60 nM; at CDK2/cyclin E, 70 nM; at CDK9/cyclin T1 it was 5 nM. Moreover, the Ki at CDK1/cyclin B worked out at 5500 nM. The IC50 was 3500 ± 400 nM in assay [1] (setting [2]); less than 10000 nM in assay [1] (setting [3]); 3500 nM in the assay with A549; 3100 nM with Saos-2; 4000 nM with HT29.

Turning to `CCNc1nc(C)c(-c2ccnc(Nc3ccc(OC)nc3)n2)s1` [Compound 12, [4-(2-Ethylamino-4-methyl-thiazol-5-yl)-pyrimidin-2-yl]-(6-methoxy-pyridin-3-yl)-amine], the Ki was found to be 130 nM at CDK7/cyclin H; 30 nM at CDK2/cyclin A; 60 nM at GSK3β; 80 nM on CDK4/cyclin D1; 50 nM on CDK2/cyclin E; 90 nM on CDK9/cyclin T1. In addition, the Ki at CDK1/cyclin B was determined as 100 nM. The IC50 in assay [1] (setting [2]) turned out to be 1200 ± 400 nM; with A549, 1200 nM; in the assay with Saos-2, 1500 nM; in the assay on HT29 it was 800 nM.

Regarding `Cc1nc(C)c(-c2ccnc(Nc3cccnc3)n2)s1` [Compound 1, [4-(2,4-Dimethyl-thiazol-5-yl)-pyrimidin-2-yl]-pyridin-3-yl-amine], the values for the Ki at CDK4/cyclin D1, on CDK2/cyclin E and at CDK9/cyclin T1 were 340 nM, 110 nM and 80 nM, respectively. The IC50 in assay [1] (setting [2]) was 3600 ± 300 nM; in assay [1] (setting [3]), less than 10000 nM; with A549 it was 3200 nM; in the assay on Saos-2, 3700 nM; in the assay with HT29, 3700 nM.

Turning to `COc1ccc(Nc2nccc(-c3sc(N(C)C)nc3C)n2)cn1` [Compound 10, [4-(2-Dimethylamino-4-methyl-thiazol-5-yl)-pyrimidin-2-yl]-(6-methoxy-pyridin-3-yl)-amine], the Ki at CDK7/cyclin H was 2300 nM; on CDK2/cyclin A, 330 nM; on GSK3β it was 110 nM; on CDK4/cyclin D1 it was 70 nM; on CDK2/cyclin E, 120 nM; at CDK9/cyclin T1, 140 nM. Also, the Ki at CDK1/cyclin B was 1200 nM. Moreover, the IC50 in assay [1] (setting [2]) is 2000 ± 400 nM; in the assay with A549, 2400 nM; with Saos-2, 1800 nM; in the assay on HT29, 1700 nM.

Regarding `Cc1nc(N)sc1-c1ccnc(Nc2ccc(Cl)nc2)n1` [Compound 7, [4-(2-Amino-4-methyl-thiazol-5-yl)-pyrimidin-2-yl]-(6-chloro-pyridin-3-yl)-amine], the Ki amounted to 1500 nM on CDK7/cyclin H; 860 nM on CDK2/cyclin A; 160 nM on GSK3β; 70 nM at CDK4/cyclin D1; 50 nM at CDK2/cyclin E; 5 nM on CDK9/cyclin T1. In addition, the Ki at CDK1/cyclin B came out at 2000 nM. Besides, the IC50 in assay [1] (setting [2]) is 3200 ± 100 nM; in assay [1] (setting [3]) it was less than 10000 nM; in the assay with A549, 3300 nM; in the assay with Saos-2, 3100 nM; in the assay with HT29, 3400 nM.

As to `CNc1nc(C)c(-c2ccnc(Nc3ccc(OC)nc3)n2)s1` [Compound 8, (6-Methoxy-pyridin-3-yl)-[4-(4-methyl-2-methylamino-thiazol-5-yl)-pyrimidin-2-yl]-amine], the Ki turned out to be 430 nM on CDK7/cyclin H; 270 nM at CDK2/cyclin A; 50 nM at GSK3β; 40 nM on CDK4/cyclin D1; 30 nM on CDK2/cyclin E; 6 nM at CDK9/cyclin T1. For the same molecule, on CDK1/cyclin B, the Ki was determined as 840 nM. For the same molecule, the IC50 amounted to 1700 ± 300 nM in assay [1] (setting [2]), 1400 nM in the assay on A549, 1700 nM with Saos-2 and 2000 nM with HT29.

In the case of `CCn1c(C)c(-c2ccnc(Nc3ccc(OC)nc3)n2)sc1=O` [Compound 11, 3-Ethyl-5-[2-(6-methoxy-pyridin-3-ylamino)-pyrimidin-4-yl]-4-methyl-3H-thiazol-2-one], the Ki at CDK7/cyclin H worked out at 230 nM; at CDK2/cyclin A, 370 nM; on GSK3β it was 13 nM; on CDK4/cyclin D1 it was 1200 nM; on CDK2/cyclin E, 110 nM; on CDK9/cyclin T1 it was 27 nM. Moreover, the Ki at CDK1/cyclin B was 3400 nM.

On to `COc1ccc(Nc2nccc(-c3sc(C)nc3C)n2)cn1` [Compound 6, [4-(2,4-Dimethyl-thiazol-5-yl)-pyrimidin-2-yl]-(6-methoxy-pyridin-3-yl)-amine], for which the Ki on CDK7/cyclin H is 1400 nM; on CDK2/cyclin A, 1400 nM; at CDK4/cyclin D1 it was 460 nM; on CDK2/cyclin E it was 130 nM; at CDK9/cyclin T1, 280 nM; at CDK1/cyclin B, 2800 nM. Moreover, the IC50 was 4600 ± 3100 nM in [1] (setting [2]); less than 10000 nM in assay [1] (setting [3]); 5100 nM in the assay with A549; 7500 nM in the assay on Saos-2; 1400 nM with HT29.

`COCCNc1nc(C)c(-c2ccnc(Nc3ccc(OC)nc3)n2)s1` [Compound 13, {4-[2-(2-Methoxy-ethylamino)-4-methyl-thiazol-5-yl]-pyrimidin-2-yl}-(6-methoxy-pyridin-3-yl)-amine]: the Ki on CDK7/cyclin H was found to be 650 nM; on CDK2/cyclin A, 950 nM; on GSK3β, 100 nM; on CDK4/cyclin D1, 250 nM; at CDK2/cyclin E, 250 nM; at CDK9/cyclin T1 it was 120 nM. Also, at CDK1/cyclin B, the Ki came to 2300 nM.

For the molecule `Cc1c(-c2ccnc(Nc3ccc(Cl)nc3)n2)sc(=O)n1C` [Compound 4, 5-[2-(6-chloro-pyridin-3-ylamino)-pyrimidin-4-yl]-3,4-dimethyl-3H-thiazol-2-one], the Ki on GSK3β was 11 nM; on CDK2/cyclin E, 140 nM; on CDK9/cyclin T1, 21 nM; at CDK1/cyclin B, 1500 nM. Also, the IC50 in assay [1] (setting [2]) came out at 1100 ± 600 nM; in the assay on A549, 1100 nM; with Saos-2 it was 1700 nM; in the assay with HT29 it was 600 nM.
